Data on four compounds can be found in PMC10931632, “Inhibition of Insulin-Regulated Aminopeptidase by Imidazo [1,5-α]pyridines—Synthesis and Evaluation” (International Journal of Molecular Sciences, 2024).

In brackets after ≈: the same amount, converted by molar mass. Entries after “also recorded” stand apart in the source; their conditions may differ. A value given as a limit tells only on which side of the number the result lay.

The target of data set [1] is T1, IRAP (Cricetulus griseus, UniProt A0A8C2M8D5).
T1 sequence (A0A8C2M8D5 1-1025): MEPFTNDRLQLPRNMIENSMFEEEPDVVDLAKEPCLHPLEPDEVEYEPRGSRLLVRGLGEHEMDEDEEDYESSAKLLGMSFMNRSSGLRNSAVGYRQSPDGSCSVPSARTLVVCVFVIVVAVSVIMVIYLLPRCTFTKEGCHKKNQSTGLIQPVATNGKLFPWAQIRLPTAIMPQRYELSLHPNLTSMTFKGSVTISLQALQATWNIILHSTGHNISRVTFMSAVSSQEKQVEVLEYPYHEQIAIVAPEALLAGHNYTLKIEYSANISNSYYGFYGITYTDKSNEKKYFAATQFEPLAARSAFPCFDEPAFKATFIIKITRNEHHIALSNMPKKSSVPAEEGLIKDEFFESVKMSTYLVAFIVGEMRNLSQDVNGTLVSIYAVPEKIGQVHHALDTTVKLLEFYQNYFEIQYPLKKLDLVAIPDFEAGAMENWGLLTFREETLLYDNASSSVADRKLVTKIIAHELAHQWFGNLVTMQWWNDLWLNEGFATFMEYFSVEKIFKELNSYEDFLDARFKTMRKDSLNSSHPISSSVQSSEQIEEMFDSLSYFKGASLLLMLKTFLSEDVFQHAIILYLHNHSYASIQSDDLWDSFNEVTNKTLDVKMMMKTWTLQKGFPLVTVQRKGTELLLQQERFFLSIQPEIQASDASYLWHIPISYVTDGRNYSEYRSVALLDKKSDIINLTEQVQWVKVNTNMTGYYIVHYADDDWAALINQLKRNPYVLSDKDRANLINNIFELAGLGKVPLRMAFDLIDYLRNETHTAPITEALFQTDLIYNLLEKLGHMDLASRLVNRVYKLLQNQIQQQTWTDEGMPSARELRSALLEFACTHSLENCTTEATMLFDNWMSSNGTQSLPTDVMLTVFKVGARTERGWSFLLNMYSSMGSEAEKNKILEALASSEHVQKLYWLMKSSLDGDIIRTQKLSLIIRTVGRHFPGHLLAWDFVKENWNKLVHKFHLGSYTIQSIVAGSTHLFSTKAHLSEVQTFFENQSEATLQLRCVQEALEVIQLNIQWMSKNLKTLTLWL
Put plainly: Mechanism of action enzyme kinetics with variable L-Leu-pNA substrate on IRAP from CHO cell membranes. The format is biochemical, Chinese hamster. Conditions: Vmax decreases, Km constant. As for the experimental part:
The design of the enzyme kinetics experiments followed that of the inhibitory experiments, except for the substrate concentrations that were variable at 0.1, 0.2, 0.3, 0.4, 0.8, 1.6 and 2.4 mM. The serial dilution of the compound stock solution was reproduced across all eight rows of a set of four 96-well plates. Four technical replicates were obtained at each substrate concentration by adding the same substrate solution to the top or bottom four rows of each 96-well plate, i.e., a total of four plates were used for this experiment, including a no-substrate control. The absorbance of these plates was then measured every 10 min to follow the enzymatic reaction over time. Data obtained in the presence of 100 µM inhibitor were used to define maximal IRAP inhibition under these assay conditions, i.e., this slope was subtracted from those obtained at lower inhibitor concentrations. Data were fitted to a model for non-competitive inhibition within GraphPad and compared with models for competitive and uncompetitive binding. The non-competitive inhibition model explains the experimental data with a probability of 99.99%, compared to 0.01% and <0.01% for competitive and uncompetitive inhibition, respectively. […]

The target in another data set is T2, human IRAP (Homo sapiens, UniProt Q9UIQ6).
T2 construct: expressed in transfected cells
Put plainly: Inhibition of human membrane-bound IRAP overexpressed in HEK293 cells (hIRAP). The format is biochemical. As for the experimental part: (§1) Human IRAP and APN were overexpressed, as previously described.
(§2) Membrane preparations from frozen CHO cells and HEK293T cells with overexpressed IRAP and APN were prepared and handled as previously described.
(§3) Details for the assay used to evaluate the inhibitory activity of the compounds have already been published.

Data set [2] deals with IRAP. Details: method as in PMID 27078680. Conditions: jump-dilution experiments; cited from earlier work.
The target in data set [3] is T3, human recombinant soluble IRAP (sIRAP) (Homo sapiens, UniProt Q9UIQ6).
T3 construct: as well as the recombinant soluble enzyme (sIRAP)
Put plainly: Inhibition of human recombinant soluble IRAP (sIRAP). The format is biochemical. The note with it: human recombinant soluble enzyme.
From the text: as §3

In data set [4] the target is T4, human aminopeptidase N (APN) (Homo sapiens, UniProt P15144).
T4 construct: expressed in transfected cells; host or cells: HEK293 / HEK293T cells, membrane preparations
Briefly: Inhibition of human aminopeptidase N overexpressed in HEK293 cells. It is filed as biochemical. Conditions: for APN IC50 (µM)/pIC50: human aminopeptidase N overexpressed in HEK293 cells. On the procedure: as §1, §2, §3

A short description of data set [5]: Human plasma protein binding. The format is in vitro ADME. Conditions: read-out: PPB. On the procedure: (§4) Pre-clinical profiling of the compounds was performed at AstraZeneca R&D in Gothenburg, Sweden, applying an integrated panel of assays referred to as the DMPK Wave 1 panel.
A short description of a further data set: Human plasma stability. It is filed as in vitro ADME. The note with it: after 18 h incubation. As for the experimental part:
as §4

A short description of data set [6]: Dried DMSO solubility in aqueous phosphate buffer pH 7.4. The format is physicochemical. The note with it: thermodynamic from solid; aqueous phosphate buffer (PBS) at pH 7.4; read-out: Sol. (dried DMSO solubility). On the procedure: as §4
Data set [7] is described as follows: Human liver microsome intrinsic clearance. The format is in vitro ADME. The note with it: human liver microsomes; for microsomal CLint: read-out: HLM Clint; for half-life: read-out: HLM t ½. As for the experimental part:
as §4
In general terms: Liver microsomes are a subcellular fraction often used to study metabolism.

Data set [8] in a line: LogD7.4 (DMPK Wave 1 panel). Conditions: pH 7.4; average ± SD of three test occasions. The format is physicochemical. As for the experimental part:
as §4

Data set [9] can be described thus: Rat hepatocytes intrinsic clearance. The format is in vitro ADME. The note with it: for hepatocyte CLint: read-out: Rat hep. Clint; for half-life: read-out: Rat hep. t ½. On the procedure: as §4

T4 sequence (P15144 whole entry): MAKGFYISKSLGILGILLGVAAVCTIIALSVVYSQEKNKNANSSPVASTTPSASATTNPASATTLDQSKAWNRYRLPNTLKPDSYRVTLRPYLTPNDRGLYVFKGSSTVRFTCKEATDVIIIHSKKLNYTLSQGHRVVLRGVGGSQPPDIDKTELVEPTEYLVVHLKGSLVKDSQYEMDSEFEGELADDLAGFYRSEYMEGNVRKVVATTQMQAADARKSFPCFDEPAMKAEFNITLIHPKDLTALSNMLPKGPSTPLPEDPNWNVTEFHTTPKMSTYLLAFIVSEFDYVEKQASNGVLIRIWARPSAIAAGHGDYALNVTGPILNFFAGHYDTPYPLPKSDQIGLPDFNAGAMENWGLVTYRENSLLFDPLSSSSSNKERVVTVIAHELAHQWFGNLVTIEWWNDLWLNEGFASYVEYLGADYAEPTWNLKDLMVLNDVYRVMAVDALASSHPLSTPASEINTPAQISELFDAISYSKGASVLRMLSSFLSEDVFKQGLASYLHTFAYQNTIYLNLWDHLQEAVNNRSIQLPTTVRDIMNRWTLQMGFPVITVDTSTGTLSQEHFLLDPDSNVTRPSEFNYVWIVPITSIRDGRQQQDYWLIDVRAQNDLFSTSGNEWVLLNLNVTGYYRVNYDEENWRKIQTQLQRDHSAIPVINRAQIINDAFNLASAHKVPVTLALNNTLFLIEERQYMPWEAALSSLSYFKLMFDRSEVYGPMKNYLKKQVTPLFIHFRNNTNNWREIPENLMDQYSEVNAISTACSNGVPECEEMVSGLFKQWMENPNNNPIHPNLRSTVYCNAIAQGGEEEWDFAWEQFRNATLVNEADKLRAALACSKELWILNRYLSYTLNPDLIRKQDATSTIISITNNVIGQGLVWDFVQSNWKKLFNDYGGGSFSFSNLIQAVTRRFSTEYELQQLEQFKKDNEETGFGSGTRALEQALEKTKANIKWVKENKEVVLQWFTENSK
T2 sequence (Q9UIQ6 whole entry): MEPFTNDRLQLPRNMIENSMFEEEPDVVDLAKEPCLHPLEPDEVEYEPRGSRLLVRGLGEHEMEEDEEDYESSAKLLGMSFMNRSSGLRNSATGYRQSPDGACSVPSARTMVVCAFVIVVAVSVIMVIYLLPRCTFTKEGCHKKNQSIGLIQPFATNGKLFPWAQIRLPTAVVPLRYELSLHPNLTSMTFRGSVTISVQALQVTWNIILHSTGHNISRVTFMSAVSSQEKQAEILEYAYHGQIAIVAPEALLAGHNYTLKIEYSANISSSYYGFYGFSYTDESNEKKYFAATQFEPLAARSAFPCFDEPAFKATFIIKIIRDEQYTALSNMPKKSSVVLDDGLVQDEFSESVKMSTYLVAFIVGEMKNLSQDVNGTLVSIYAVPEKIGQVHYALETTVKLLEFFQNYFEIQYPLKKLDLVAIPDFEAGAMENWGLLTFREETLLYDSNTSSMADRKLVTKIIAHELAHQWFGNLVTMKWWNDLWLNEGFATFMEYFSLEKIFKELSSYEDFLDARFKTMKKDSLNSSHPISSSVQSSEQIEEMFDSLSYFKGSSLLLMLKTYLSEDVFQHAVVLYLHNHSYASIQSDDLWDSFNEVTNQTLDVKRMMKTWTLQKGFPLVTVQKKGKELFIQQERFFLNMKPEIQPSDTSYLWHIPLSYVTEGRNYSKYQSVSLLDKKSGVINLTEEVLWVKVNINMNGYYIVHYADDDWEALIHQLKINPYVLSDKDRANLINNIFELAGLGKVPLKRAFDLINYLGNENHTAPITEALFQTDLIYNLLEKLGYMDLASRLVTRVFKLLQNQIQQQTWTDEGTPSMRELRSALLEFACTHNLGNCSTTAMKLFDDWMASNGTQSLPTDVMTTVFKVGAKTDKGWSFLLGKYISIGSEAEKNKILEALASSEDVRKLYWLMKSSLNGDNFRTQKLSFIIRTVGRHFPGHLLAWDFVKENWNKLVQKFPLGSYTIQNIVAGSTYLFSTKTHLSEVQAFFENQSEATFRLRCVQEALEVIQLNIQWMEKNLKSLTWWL
T3 sequence (Q9UIQ6 155-1025 limits assumed): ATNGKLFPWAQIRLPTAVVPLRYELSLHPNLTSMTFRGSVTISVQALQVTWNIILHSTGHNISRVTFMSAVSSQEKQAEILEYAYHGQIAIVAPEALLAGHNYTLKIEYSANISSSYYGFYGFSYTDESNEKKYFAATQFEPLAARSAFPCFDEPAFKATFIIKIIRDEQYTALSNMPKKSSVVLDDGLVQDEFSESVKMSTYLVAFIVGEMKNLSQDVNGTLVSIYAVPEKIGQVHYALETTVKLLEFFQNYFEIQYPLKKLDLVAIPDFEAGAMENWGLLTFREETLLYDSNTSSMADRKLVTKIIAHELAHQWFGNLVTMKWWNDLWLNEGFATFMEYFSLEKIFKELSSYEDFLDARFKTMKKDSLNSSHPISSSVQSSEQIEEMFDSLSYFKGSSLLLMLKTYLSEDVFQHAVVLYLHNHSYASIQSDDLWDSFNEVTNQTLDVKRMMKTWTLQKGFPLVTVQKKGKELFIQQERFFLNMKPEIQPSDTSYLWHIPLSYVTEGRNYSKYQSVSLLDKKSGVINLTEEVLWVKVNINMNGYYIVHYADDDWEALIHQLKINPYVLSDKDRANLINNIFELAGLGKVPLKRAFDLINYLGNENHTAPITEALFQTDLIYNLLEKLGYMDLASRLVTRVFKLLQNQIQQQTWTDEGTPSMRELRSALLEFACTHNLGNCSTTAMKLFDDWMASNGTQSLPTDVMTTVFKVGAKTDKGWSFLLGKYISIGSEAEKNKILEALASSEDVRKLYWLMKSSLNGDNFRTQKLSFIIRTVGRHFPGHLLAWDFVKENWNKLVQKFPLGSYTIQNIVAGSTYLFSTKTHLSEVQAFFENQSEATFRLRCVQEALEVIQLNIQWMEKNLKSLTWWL

Turning to `COc1ccccc1-c1nc(C2CCCN2C(=O)N[C@@H](C)c2ccccc2)n2ccccc12` (mixture of isomers) [Compound 6a, 2-(1-(2-Methoxyphenyl)imidazo [1,5-a]pyridin-3-yl)-N-((S)-1-phenylethyl)pyrrolidine-1-carboxamide], the “mode of inhibition versus substrate” value on IRAP [1] is listed as “non-competitive binding with the substrate”. In addition, the IC50 (in general, the concentration that gives 50% inhibition) against human IRAP is 1300 nM; in data set [3], 1000 nM. The “reversibility of binding to IRAP” value with IRAP [2] is given as “binds reversibly”. Also, the “impact on the activity of human APN” value in data set [4] (at concentrations up to 125 µM) is listed as “no impact”. In addition, the “APN IC50 (µM)/pIC50” value in data set [4] is “neither compound showed any inhibitory activity; also recorded: inactive (2)”.

At human IRAP, `COc1ccccc1-c1nc(C2CCCN2C(=O)N[C@H](C)c2ccccc2)n2ccccc12` (mixture of isomers) [Compound 6b, 2-(1-(2-Methoxyphenyl)imidazo [1,5-a]pyridin-3-yl)-N-((R)-1-phenylethyl)pyrrolidine-1-carboxamide] came in with an IC50 of 50000 nM. Moreover, the “APN IC50 (µM)/pIC50” value in data set [4] was “neither compound showed any inhibitory activity; also recorded: inactive (2)”.

Take `COc1ccccc1-c1nc(CN(C)C(=O)N[C@@H](C)c2ccccc2)n2ccccc12` [Compound 6m, (S)-1-((1-(2-Methoxyphenyl)imidazo [1,5-a]pyridin-3-yl)methyl)-1-methyl-3-(1-phenylethyl)urea]: the fraction unbound in data set [5] turned out to be 0.006 ± 0.001. For the same compound, in “Human plasma stability”, the “Plasma Stab” value turned out to be 99 ± 5 % compound remaining. The solubility (usually the concentration that dissolves in the medium under given conditions) in data set [6] stood at 55 ± 12 µM (≈ 22.8 µg/mL). Moreover, in [7], the microsomal CLint is more than 300 µL/min/mg and the half-life was less than 2.3 min. Besides, the logD (in general, the decadic logarithm of the distribution of all forms, ionised or not, between an organic phase and buffer at a given pH) in data set [8] turned out to be 2.9 ± 0.6. In addition, in data set [9], the hepatocyte CLint is more than 300 µL/min/1e6 cells and the half-life was less than 2.3 min.

Take `COc1ccccc1-c1nc(C2CCCN2C(=S)NCc2ccccc2)n2ccccc12` (stereo not drawn) [Compound 6v, N-Benzyl-2-(1-(2-methoxyphenyl)imidazo [1,5-a]pyridin-3-yl)pyrrolidine-1-carbothioamide]: the fraction unbound in data set [5] worked out at 0.007 ± 0.001. In addition, the “Plasma Stab” value in “Human plasma stability” is on record as 76 ± 6 % compound remaining. For the same compound, in data set [6], the solubility lay within 0.6 to 2 µM (≈ 0.266 to 0.885 µg/mL). Moreover, in data set [7], the microsomal CLint was more than 300 µL/min/mg and the half-life is less than 2.3 min. Moreover, in data set [8], the logD stood at 3.3 ± 0.4. In addition, in data set [9], the hepatocyte CLint is more than 300 µL/min/1e6 cells and the half-life is less than 2.3 min.
